Experimental data published in patent US9289400B2, “D3 dopamine receptor agonists to treat dyskinesia in parkinson's disease” (priority 2010, dated 2016).
pEC50: −log10 of the molar value. Entries after “also recorded” stand apart in the source; their conditions may differ. Read-outs that look alike come from different tables or passages of the source. Marks after values point to notes of the source that are not given here.

Tests used:
[1] = target: T1, D2L dopamine receptor (Homo sapiens (Human), UniProt P14416); assay: cell-based; assay type: cell-based
T1 sequence (P14416 whole entry): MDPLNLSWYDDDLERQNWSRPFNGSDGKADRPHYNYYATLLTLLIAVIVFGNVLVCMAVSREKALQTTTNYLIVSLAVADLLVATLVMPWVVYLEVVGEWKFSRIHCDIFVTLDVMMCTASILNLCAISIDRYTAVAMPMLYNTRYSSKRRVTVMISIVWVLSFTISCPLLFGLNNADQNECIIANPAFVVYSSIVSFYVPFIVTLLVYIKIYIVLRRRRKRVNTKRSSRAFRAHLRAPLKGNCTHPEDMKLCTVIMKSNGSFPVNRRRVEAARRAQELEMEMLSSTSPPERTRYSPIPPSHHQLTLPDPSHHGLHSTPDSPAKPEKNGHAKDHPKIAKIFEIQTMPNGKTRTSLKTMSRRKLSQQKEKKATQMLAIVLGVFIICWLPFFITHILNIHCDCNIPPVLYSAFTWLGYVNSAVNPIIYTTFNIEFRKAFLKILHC
Method: (§1) The ability of the lead compound to dose-dependently decrease forskolin-induced cAMP levels is measured. The IC50 values for each receptor subtype is determined by fitting the data points using the Hill equation.
(§2) AtT-20 mouse pituitary cells were grown in Ham's F10 medium with 5% FBS, 10% heat-inactivated horse serum, 2 mM glutamine and 50 μg/ml gentamicin (Invitrogen, Carlsbad, Calif.). AtT-20 cells stabling expressing the human D2S, D2L, D3, and D4.2 and receptor were maintained in the above F10 culture media supplemented with 500 μg/ml G418 (Invitrogen). For electrophysiological characterization, cells were plated onto glass coverslips coated with 40 μg/ml poly L-lysine (Sigma-Aldrich). […] Physiol. […] Neurosci. […] Biophys. […] Neurosci.
(§3) The cAMP levels in each treated sample were assayed in triplicate and the entire experiment repeated three independent times.
(§4) To compare the functional effects of the new class of D3 receptor agonists, PBZI (Table 2) and ES609 (Table 3) were tested on AtT-20 cells stably expressing human D3, D2S, D2L or D4.2.

[2] = target: T2, D4.2 dopamine receptor (Homo sapiens (Human), UniProt P21917, DEL265-296); assay: cell-based; assay type: cell-based
T2 sequence (P21917 other isoform, or with tags, fused parts or gaps del 265-296): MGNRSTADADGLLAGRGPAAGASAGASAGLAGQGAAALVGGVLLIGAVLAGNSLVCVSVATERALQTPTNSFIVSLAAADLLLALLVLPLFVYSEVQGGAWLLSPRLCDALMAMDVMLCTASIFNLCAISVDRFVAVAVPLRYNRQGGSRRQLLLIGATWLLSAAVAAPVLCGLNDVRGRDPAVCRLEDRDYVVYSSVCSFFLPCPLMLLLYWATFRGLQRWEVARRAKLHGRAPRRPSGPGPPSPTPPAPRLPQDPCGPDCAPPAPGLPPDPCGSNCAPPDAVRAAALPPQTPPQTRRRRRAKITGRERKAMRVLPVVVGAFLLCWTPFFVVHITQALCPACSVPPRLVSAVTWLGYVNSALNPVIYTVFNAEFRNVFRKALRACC
Method: as §1, §2, §3, §4

[3] = target: D2S dopamine receptor (Homo sapiens (Human), UniProt P14416); assay: GIRK channel activation, whole cell voltage clamp, AtT-20 cells stably expressing D2S; assay type: cell-based; details: for GIRK channel activation: agonist type: versus full agonist quinpirole
Sequence of D2S dopamine receptor (P14416 other isoform, or with tags, fused parts or gaps): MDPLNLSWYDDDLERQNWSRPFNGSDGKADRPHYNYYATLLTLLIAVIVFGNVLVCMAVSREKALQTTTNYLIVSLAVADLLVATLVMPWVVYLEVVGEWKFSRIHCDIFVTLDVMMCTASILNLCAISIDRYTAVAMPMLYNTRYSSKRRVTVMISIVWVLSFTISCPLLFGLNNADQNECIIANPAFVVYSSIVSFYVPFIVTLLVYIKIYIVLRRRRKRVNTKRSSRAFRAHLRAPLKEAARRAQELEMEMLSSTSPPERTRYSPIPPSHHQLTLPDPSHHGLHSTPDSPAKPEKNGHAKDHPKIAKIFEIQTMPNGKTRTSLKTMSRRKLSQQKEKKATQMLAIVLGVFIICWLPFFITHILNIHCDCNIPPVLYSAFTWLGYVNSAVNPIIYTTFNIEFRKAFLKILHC
Method: (§5) The activation of the GIRK channels was measured electrophysiologically using whole cell voltage clamp recording (Kuzhikandathil et al., 2004, Mol. Cell. Neurosci. 26:144-155). The GIRK channel responses elicited with new ligands were compared to quinpirole, a classical full agonist of D2, D3 and D4 dopamine receptors. The adenylyl cyclase inhibition was determined using a commercially available ELISA assay (Westrich & Kuzhikandathil, 2007, Biochim. Biophys. Acta-Mol. Cell. Res. 1773:1747-1758).
(§6) In the first assay, whole cell voltage clamp recording is used to measure GIRK response to increasing concentrations of the lead compound (0.01 nM to 3,000 nM dose range). The EC50 values for each receptor subtype is determined by fitting the data points using the Hill equation.
(§7) AtT-20 mouse pituitary cells were grown in Ham's F10 medium with 5% FBS, 10% heat-inactivated horse serum, 2 mM glutamine and 50 μg/ml gentamicin (Invitrogen, Carlsbad, Calif.). AtT-20 cells stabling expressing the human D2S, D2L, D3, and D4.2 and receptor were maintained in the above F10 culture media supplemented with 500 μg/ml G418 (Invitrogen). For electrophysiological characterization, cells were plated onto glass coverslips coated with 40 μg/ml poly L-lysine (Sigma-Aldrich). The generation and characterization of the AtT-20 cells stably expressing various human dopamine receptors have been previously reported (Kuzhikandathil & Oxford, 2000, J. Gen. Physiol. 115:697-706; Kuzhikandathil et al., 1998, Mol. Cell. Neurosci. 12:390-402; Kuzhikandathil & Bartoszyk, 2006, Neuropharm. 51:873-884; Westrich & Kuzhikandathil, 2007, Biochim. Biophys. Acta-MCR 1773:1747-1758; Kuzhikandathil et al., 2004, Mol. Cell. Neurosci. 26:144-155; Westrich et al., 2010, Biochem. Pharmacol. 79:897-907).
(§8) Agonist-activated currents were measured by the whole-cell patch clamp technique in voltage clamp and current clamp mode as described previously (Kuzhikandathil & Oxford, 2000, J. Gen. Physiol. 115:697-706; Kuzhikandathil et al., 1998, Mol. Cell. Neurosci. 12:390-402; Kuzhikandathil & Bartoszyk, 2006, Neuropharm. 51:873-884; Westrich & Kuzhikandathil, 2007, Biochim. Biophys. Acta-MCR 1773:1747-1758; Kuzhikandathil et al., 2004, Mol. Cell. Neurosci. 26:144-155; Westrich et al., 2010, Biochem. Pharmacol. 79:897-907). Drug solutions were delivered to cells via a multi-barreled micropipette array. The current responses were normalized to the cell capacitance, to account for variation in cell size.
(§9) To compare the functional effects of the new class of D3 receptor agonists, PBZI (Table 2) and ES609 (Table 3) were tested on AtT-20 cells stably expressing human D3, D2S, D2L or D4.2. Functional efficacy was determined by assessing the ability of PBZI and ES609 to inhibit adenylyl cyclase or activate GIRK channels coupled to these “D2-like” dopamine receptors. The EC50 values of PBZI and ES609 for inhibiting adenylyl cyclase and activating GIRK channels were in the range of 0.2 nM to 30 nM for D3 receptors.

[4] = target: T1, D2L dopamine receptor; assay: GIRK channel activation, whole cell voltage clamp, AtT-20 cells stably expressing D2L; assay type: cell-based; details: for GIRK channel activation: agonist type: versus full agonist quinpirole
Method: as §5, §6, §7, §8, §9

[5] = target: T2, D4.2 dopamine receptor; assay type: cell-based
Method: The EC50 values for each receptor subtype is determined by fitting the data points using the Hill equation.
as §2
Drug solutions were delivered to cells via a multi-barreled micropipette array. The current responses were normalized to the cell capacitance, to account for variation in cell size.
as §4

[6] = target: D3 dopamine receptor (Homo sapiens (Human), UniProt P35462); assay: D3 receptor tolerance and SRT: GIRK response to repeated agonist application in AtT-20 cells; assay type: cell-based; details: AtT-20 cells expressing human D3, 100-300 nM agonist, repeated ~60 s applications
Sequence of D3 dopamine receptor (P35462 other isoform, or with tags, fused parts or gaps): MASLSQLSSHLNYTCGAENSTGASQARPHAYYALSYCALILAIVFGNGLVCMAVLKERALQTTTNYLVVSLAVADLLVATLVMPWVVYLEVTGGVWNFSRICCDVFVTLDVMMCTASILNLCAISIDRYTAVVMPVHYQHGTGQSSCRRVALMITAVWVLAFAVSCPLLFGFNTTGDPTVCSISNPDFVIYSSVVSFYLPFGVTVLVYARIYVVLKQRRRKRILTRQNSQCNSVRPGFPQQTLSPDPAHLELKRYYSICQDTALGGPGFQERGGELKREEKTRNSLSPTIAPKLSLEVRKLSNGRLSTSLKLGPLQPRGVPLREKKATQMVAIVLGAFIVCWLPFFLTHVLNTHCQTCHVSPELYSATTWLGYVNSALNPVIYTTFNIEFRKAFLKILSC
Method: To determine whether a compound abolishes the D3 receptor tolerance and SRT, the D3 receptor-activated GIRK response to two consecutive treatments of the lead compound is measured. […] Drug solutions were delivered to cells via a multi-barreled micropipette array. The current responses were normalized to the cell capacitance, to account for variation in cell size.
To identify agonists that might modulate D3 receptor tolerance and SRT properties, ten distinct agonists were screened for their ability to induce tolerance and SRT, using the D3 receptor-GIRK channel signaling pathway as an assay.

[7] = test system: intrastriatal 6-OHDA lesioned rats; assay: Forelimb stepping test in intrastriatal 6-OHDA lesioned rats; details: for motor deficits in a rat PD model: FIG. 18

CCCN1CC[C@@H]2c3cc(O)ccc3CC[C@@H]21 [PBZI, (3aS,9bR)-3-propyl-1,2,3a,4,5,9b-hexahydrobenzo[e]indol-8-ol] was tested. Which “Adenylyl cyclase inhibition: agonist type” value [1] did it give?
Its value is “full agonist and full”.

And the pEC50 ([1]; AtT-20 cells, D2L, read-out: Adenylyl cyclase inhibition EC50)?
Its pEC50 is 7.17.

What about the “Adenylyl cyclase inhibition Ratio of PBZI to quinpirole response (at 300 nM)” value ([1]; D2L, 300 nM) of the same compound?
Its value is 0.83.

And the “Adenylyl cyclase inhibition: agonist type” value [2]?
The value was “elicited no response and no”.

And the “Adenylyl cyclase inhibition EC50” value ([2]; AtT-20 cells, D4.2)?
The value was “No response”.

And the “Adenylyl cyclase inhibition Ratio of PBZI to quinpirole response (at 300 nM)” value ([2]; D4.2, 300 nM)?
Its value is 0^†.

And the “adenylyl cyclase inhibition at 300 nM” value ([2]; D4.2, 300 nM)?
The value was “^†no adenylyl cyclase inhibition in the presence of 300 nM PBZI; but 300 nM quinpirole elicits ~70% inhibition”.

What about the “GIRK channel activation Ratio of PBZI to quinpirole response (at 300 nM)” value (shortened to “GIRK channel activation Ratio of PBZI”) ([3]; 300 nM) of the same compound?
The value was 0.48*.

What about the pEC50 ([3]; AtT-20 cells) of the same compound?
The pEC50 was 7.28.

And the “GIRK channel activation: agonist type” value [3]?
The value was “partial agonists”.

And the “GIRK channel activation Ratio of PBZI” value ([4]; 300 nM)?
Its value is 0.75.

And the “GIRK channel activation: agonist type” value [4]?
The value was “full agonist”.

What about the “GIRK channel activation: agonist type” value [5] of the same compound?
The value was “partial agonist”.

And the “GIRK channel activation Ratio of PBZI” value ([5]; D4.2, 300 nM)?
The value was 0.35*.

What about the “D3 receptor tolerance and SRT properties (agonist-induced GIRK response)” value [6] of the same compound?
The value was “does not elicit tolerance and SRT properties; also recorded: abolished both tolerance and SRT properties; also recorded: did not induce tolerance; also recorded: does not induce tolerance and SRT; also recorded: did not show either tolerance or SRT properties; also recorded: completely abolished the receptors' tolerance and SRT properties”.

And the “D3 receptor tolerance and SRT properties (agonist-induced GIRK response)” value ([6]; listed as cis-80H-PBZI)?
Its value is “abolished the tolerance property”.

What about the “motor deficits in a rat PD model” value [7] of the same compound?
The value was “improve motor deficits”.

And the “effect on beneficial effect of levodopa on bradykinesia/akinesia (stepping test)” value ([7]; co-administration of PBZI and levodopa)?
Its value is “did not attenuate the beneficial effect of levodopa”.

What does the source list for CC(N)CCc1ccccc1Cl (stereo not drawn) [ES609]?
Adenylyl cyclase inhibition: agonist type [1]: did not elicit any response; Adenylyl cyclase inhibition EC50 ([1]; AtT-20 cells, D2L): No response; Adenylyl cyclase inhibition Ratio of ES609 to quinpirole response (at 300 nM) ([1]; D2L, 300 nM): 0^†; adenylyl cyclase inhibition at 300 nM ([1]; D2L, 300 nM): ^†no adenylyl cyclase inhibition in the presence of 300 nM ES609; but 300 nM quinpirole elicits ~80% inhibition.; Adenylyl cyclase inhibition: agonist type ([1]; listed as ES0609): No response; Adenylyl cyclase inhibition: agonist type [2]: partial agonist; pEC50 ([2]; AtT-20 cells, D4.2, read-out: Adenylyl cyclase inhibition EC50): 9.09; Adenylyl cyclase inhibition Ratio of ES609 to quinpirole response (at 300 nM) ([2]; D4.2, 300 nM): 0.60*; Adenylyl cyclase inhibition: agonist type ([2]; listed as ES0609): Partial; GIRK current compared with quinpirole-induced current ([3]; 100 nM): significantly less than the quinpirole-induced current; GIRK channel activation Ratio of ES609 to quinpirole response (at 300 nM) ([3]; 300 nM): 0.30*; GIRK channel activation: agonist type [3]: partial agonists; GIRK channel activation: agonist type ([3]; listed as ES0609): Partial; GIRK channel activation Ratio of ES609 to quinpirole response (at 300 nM) ([4]; 300 nM): 0.32*; GIRK channel activation: agonist type [4]: partial agonist; GIRK channel activation: agonist type ([4]; listed as ES0609): Partial; GIRK channel activation: agonist type [5]: elicited no response; GIRK channel activation EC50 ([5]; AtT-20 cells, D4.2): No response; GIRK channel activation Ratio of ES609 to quinpirole response (at 300 nM) ([5]; D4.2, 300 nM): 0^††; GIRK response at 300 nM ([5]; D4.2, 300 nM): ^††300 nM ES609 elicits no GIRK response; but, 300 nM quinpirole elicits a full GIRK response.; GIRK channel activation: agonist type ([5]; listed as ES0609): no response; D3 receptor tolerance and SRT properties (agonist-induced GIRK response) [6]: did not induce tolerance and SRT; also recorded: did not show tolerance and SRT; D3 receptor tolerance and SRT properties (agonist-induced GIRK response) ([6]; listed as ES 609): also abolished D3 receptor tolerance and SRT properties; motor deficits in a rat PD model [7]: improve motor deficits
